# PubChem BioAssay (NCI)
#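 96-well plates; 48 h exposure; 5 concentrations. Endpoints by linear interpolation between flanking doses. Not reached: highest tested concentration assigned. GI50 = concentration required for 50% inhibition of growth. At the TGI there is no net growth.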
# Legend:
# Assay in all cases: NCI-60 cell line screen, 48 h
# [1] = test system: 786-0 renal
# [2] = test system: A498 renal
# [3] = test system: A549 NSCLC
# [4] = test system: ACHN renal
# [5] = test system: BT-549 breast
# [6] = test system: CAKI-1 renal
# [7] = test system: CCRF-CEM leukemia
# [8] = test system: COLO 205 colon
# [9] = test system: DU-145 prostate
# [10] = test system: EKVX NSCLC
# [11] = test system: HCC-2998 colon
# [12] = test system: HCT-116 colon
# [13] = test system: HCT-15 colon
# [14] = test system: HL-60(TB) leukemia
# [15] = test system: HOP-62 NSCLC
# [16] = test system: HOP-92 NSCLC
# [17] = test system: HS 578T breast
# [18] = test system: HT29 colon
# [19] = test system: IGROV1 ovarian
# [20] = test system: K-562 leukemia
# [21] = test system: KM12 colon
# [22] = test system: LOX IMVI melanoma
# [23] = test system: M14 melanoma
# [24] = test system: MALME-3M melanoma
# [25] = test system: MCF7 breast
# [26] = test system: MDA-MB-231 breast
# [27] = test system: MDA-MB-435
# [28] = test system: MDA-MB-468 breast
# [29] = test system: MOLT-4 leukemia
# [30] = test system: NCI-H226 lung
# [31] = test system: NCI-H23 lung
# [32] = test system: NCI-H460 lung
# [33] = test system: NCI-H522 lung
# [34] = test system: OVCAR-3 ovarian
# [35] = test system: OVCAR-4 ovarian
# [36] = test system: OVCAR-5 ovarian
# [37] = test system: OVCAR-8 ovarian
# [38] = test system: PC-3 prostate
# [39] = test system: RPMI-8226 leukemia
# [40] = test system: RXF 393 renal
# [41] = test system: SF-268 CNS
# [42] = test system: SF-295 CNS
# [43] = test system: SF-539 CNS
# [44] = test system: SK-MEL-2 melanoma
# [45] = test system: SK-MEL-28 melanoma
# [46] = test system: SK-MEL-5 melanoma
# [47] = test system: SK-OV-3 ovarian
# [48] = test system: SN12C renal
# [49] = test system: SNB-19 CNS
# [50] = test system: SNB-75 CNS
# [51] = test system: SR leukemia
# [52] = test system: SW-620 colon
# [53] = test system: T-47D breast
# [54] = test system: TK-10 renal
# [55] = test system: U251 CNS
# [56] = test system: UACC-257 melanoma
# [57] = test system: UACC-62 melanoma
# [58] = test system: UO-31 renal
compound,measurement,setting,value
CSc1ccc(NC(=O)c2ccc3nnn(/C(C#N)=C/c4ccccn4)c3c2)cc1,GI50,[1],1.57 µM
same,TGI,[1],3.05 µM
same,GI50,[2],9.47 µM
same,TGI,[2],21.4 µM
same,GI50,[3],2.91 µM
same,TGI,[3],11 µM
same,GI50,[4],1.69 µM
same,TGI,[4],3.06 µM
same,GI50,[5],1.61 µM
same,TGI,[5],3.13 µM
same,GI50,[6],1.2 µM
same,TGI,[6],2.46 µM
same,GI50,[7],1.38 µM
same,TGI,[7],8.01 µM
same,GI50,[8],1.11 µM
same,TGI,[8],2.39 µM
same,GI50,[9],1.63 µM
same,TGI,[9],2.99 µM
same,GI50,[10],1.59 µM
same,TGI,[10],3 µM
same,GI50,[11],1.65 µM
same,TGI,[11],3.01 µM
same,GI50,[12],1.74 µM
same,TGI,[12],3.55 µM
same,GI50,[13],1.04 µM
same,TGI,[13],2.3 µM
same,GI50,[14],1.59 µM
same,TGI,[14],7.08 µM
same,GI50,[15],2.21 µM
same,TGI,[15],5.63 µM
same,GI50,[16],1.5 µM
same,TGI,[16],3.2 µM
same,GI50,[17],2.07 µM
same,TGI,[17],4.96 µM
same,GI50,[18],1.89 µM
same,TGI,[18],3.89 µM
same,GI50,[19],1.87 µM
same,TGI,[19],3.57 µM
same,GI50,[20],1.23 µM
same,TGI,[20],> 100 µM
same,GI50,[21],1.6 µM
same,TGI,[21],3.27 µM
same,GI50,[22],0.879 µM
same,TGI,[22],2.12 µM
same,GI50,[23],1.67 µM
same,TGI,[23],3.27 µM
same,GI50,[24],1.57 µM
same,TGI,[24],2.96 µM
same,GI50,[25],1.01 µM
same,TGI,[25],2.51 µM
same,GI50,[26],1.75 µM
same,TGI,[26],3.21 µM
same,GI50,[27],1.46 µM
same,TGI,[27],2.92 µM
same,GI50,[28],0.904 µM
same,TGI,[28],2.28 µM
same,GI50,[29],1.83 µM
same,TGI,[29],8.33 µM
same,GI50,[30],2.29 µM
same,TGI,[30],6.14 µM
same,GI50,[31],1.59 µM
same,TGI,[31],2.97 µM
same,GI50,[32],1.93 µM
same,TGI,[32],4.59 µM
same,GI50,[33],1.25 µM
same,TGI,[33],2.65 µM
same,GI50,[34],1.22 µM
same,TGI,[34],2.54 µM
same,GI50,[35],1.64 µM
same,TGI,[35],3.01 µM
same,GI50,[36],1.6 µM
same,TGI,[36],3.02 µM
same,GI50,[37],1.75 µM
same,TGI,[37],3.68 µM
same,GI50,[38],2.04 µM
same,TGI,[38],4.37 µM
same,GI50,[39],1.46 µM
same,TGI,[39],4.7 µM
same,GI50,[40],1.32 µM
same,TGI,[40],2.6 µM
same,GI50,[41],2.47 µM
same,TGI,[41],7.06 µM
same,GI50,[42],1.88 µM
same,TGI,[42],4.66 µM
same,GI50,[43],1.61 µM
same,TGI,[43],2.97 µM
same,GI50,[44],1.71 µM
same,TGI,[44],3.22 µM
same,GI50,[45],1.48 µM
same,TGI,[45],2.82 µM
same,GI50,[46],1.64 µM
same,TGI,[46],3.05 µM
same,GI50,[47],5.49 µM
same,TGI,[47],18 µM
same,GI50,[48],1.78 µM
same,TGI,[48],3.51 µM
same,GI50,[49],2.74 µM
same,TGI,[49],8.65 µM
same,GI50,[50],1.82 µM
same,TGI,[50],4.38 µM
same,GI50,[51],1.65 µM
same,TGI,[51],34.4 µM
same,GI50,[52],0.763 µM
same,TGI,[52],2.14 µM
same,GI50,[53],1.33 µM
same,TGI,[53],3.06 µM
same,GI50,[54],1.57 µM
same,TGI,[54],2.98 µM
same,GI50,[55],1.56 µM
same,TGI,[55],3.05 µM
same,GI50,[56],1.6 µM
same,TGI,[56],3.07 µM
same,GI50,[57],1.61 µM
same,TGI,[57],3.05 µM
same,GI50,[58],1.35 µM
same,TGI,[58],2.64 µM
